Results taken from patent publication US7897582B2, “Oligonucleotide compositions and methods for the modulation of the expression of B7 protein” (Isis Pharmaceuticals, Inc., priority 2003, dated 2011).
Strand notation (5' to 3'): a small letter for the sugar, then the base; units joined by * are phosphorothioate-linked, units joined directly phosphodiester-linked; [ ] holds rarer units or linkages, { } end groups; capitals alone tell only the bases. d = 2'-deoxy (DNA)

Legend:
[1] = mouse, in vivo
Description: Antisense oligonucleotides (ASOs) were dissolved in saline and used to intratracheally dose mice every day, four times per day, from days 15-26 of the OVA sensitization and challenge protocol. Specifically, the mice were anesthetized with isofluorane and placed on a board with the front teeth hung from a line. The nose was covered and the animal's tongue was extended with forceps and […] of various doses of ASO, or an equivalent volume of saline (control) was placed at the back of the tongue until inhaled into the lung.

[2] = system: murine B7-2 (mB7-2); assay: Murine B7-2 cell surface expression in transfected COS-7 cells by flow cytometry; type: cell-based, mouse
Excerpt: Oligonucleotides (see Table 4) capable of inhibiting expression of murine B7-2 transiently expressed in COS-7 cells were identified in the following manner. A series of phosphorothioate oligonucleotides complementary to murine B7-2 (mB7-2) cDNA were screened for their ability to reduce mB7-2 levels (measured by flow cytometry as in Example 2, except that a conjugated anti-mB7-2 antibody (i.e., anti-mCD86-PE, PharMingen, San Diego, Calif.) in COS-7 cells transfected with an mB7-2 cDNA clone. Anti-mB7-2 antibody may also be obtained from the hybridoma deposited at the ATCC under accession No. HB-253. Oligonucleotides (see Table 2) capable of modulating murine B7-1 expression are isolated in like fashion, except that a conjugated anti-mB7-1 antibody is used in conjunction with COS-7 cells transfected with an mB7-1 cDNA clone.
(§1) B7 antisense oligonucleotides were tested for their effect on cell surface expression of both B7-1 and B7-2. Cell surface expression was measured as described in Example 1. Experiments were done for both human B7 and mouse B7.

[3] = system: murine B7-2 (mB7-2); assay: mB7-2 cell surface expression in LPS-induced IC-21 cells by flow cytometry; type: cell-based, mouse; details: FIG. 9; for levels of induced mB7-2 expression: 3 μM; for reduction in the level of induced mB7-2 expression: 10 μM
Description: In order to further evaluate the murine B7-2 antisense oligonucleotides, the IC-21 cell line was used. IC-21 monocyte/macrophage cell line expresses both B7-1 and murine B7-2 (mB7-2) constitutively. A 2-fold induction of expression can be achieved by incubating the cells in the presence of lipopolysaccharide (LPS; GIBCO-BRL, Gaithersburg, Md.) (Hathcock et al., Science, 1993, 262, 905).
IC-21 cells (ATCC; accession No. TIB 186) were seeded at 80% confluency in 12-well plates in DMEM media with 10% FCS. The cells were allowed to adhere to the plate overnight. The following day, the medium was removed and the cells were washed with PBS. Then 500 μL of OptiMEM™ (GIBCO-BRL, Gaithersburg, Md.) supplemented with 15 μg/mL of Lipofectin™ (GIBCO-BRL, Gaithersburg, Md.) was added to each well. Oligonucleotides were then added directly to the medium at the indicated concentrations. After incubation for 4 hours, the cells were washed with PBS and incubated overnight in culture medium supplemented with 15 μg/mL of LPS. The following day, cells were harvested by scraping, then analyzed for cell surface expression by flow cytometry.

[4] = system: BALB/c mice with heart allograft; assay: Murine heart allograft rejection model; type: in vivo, mouse
Description: A murine model for evaluating compounds for their ability to inhibit heart allograft rejection has been previously described (Stepkowski et al., J. Immunol., 1994, 153, 5336). This model was used to evaluate the immunosuppressive capacity of antisense oligonucleotides to B7 proteins alone or in combination with antisense oligonucleotides to intercellular adhesion molecule-1 (ICAM-1).
Heart allograft rejection studies and oligonucleotide treatments of BALB/c mice were performed essentially as previously described (Stepkowski et al., J. Immunol., 1994, 153, 5336). Antisense oligonucleotides used included ISIS 11696, ISIS 3082 (targeted to ICAM-1) and ISIS 1082 (a control oligonucleotide targeted to the herpes virus UL-13 gene sequence). Dosages used were 1, 2, 2.5, 5 or 10 mg/kg of individual oligonucleotide (as indicated below); when combinations of oligonucleotides were administered, each oligonucleotide was given at a dosage of 1, 5 or 10 mg/kg (total oligonucleotide dosages of 2, 10 and 20 mg/kg, respectively). The survival times of the transplanted hearts and their hosts were monitored and recorded.

[5] = system: B7-2; assay: B7-2 expression in antigen presenting cells (blood monocytes with IL-4 and GM-CSF), flow cytometry; type: cell-based, human; details: FIG. 6
Description: The ability of ISIS 10373 to inhibit expression from the native B7-2 gene in antigen presenting cells (APCs) was evaluated as follows.
Monocytes were cultured and treated with oligonucleotides as follows. For dendritic cells, EDTA-treated blood was layered onto Polymorphprep™ (1.113 g/mL; Nycomed, Oslo, Norway) and sedimented at 500×g for 30 minutes at 20° C. Mononuclear cells were harvested from the interface. Cells were washed with PBS, with serum-free RPMI media (Moore et al., N.Y. J. Med., 1968, 68, 2054) and then with RPMI containing 5% fetal bovine serum (FBS). Monocytes were selected by adherence to plastic cell culture cell culture dishes for 1 h at 37° C. After adherence, cells were treated with oligonucleotides in serum-free RPMI containing Lipofectin™ (8 μg/mL). After 4 hours, the cells were washed. […] Cells were incubated for 48 hours, after which cell surface expression of various molecules was measured by flow cytometry.
(§2) Mononuclear cells isolated from fresh blood were treated with oligonucleotide in the presence of cationic lipid to promote cellular uptake. […] Expression of B7-2 protein was measured by flow cytometry according to the methods of Example 2. […]

[6] = system: ICAM-1; assay: ICAM-1 expression in antigen presenting cells, flow cytometry; type: cell-based, human
Description: (§3) Monocytes were cultured and treated with oligonucleotides as follows. For dendritic cells, EDTA-treated blood was layered onto Polymorphprep™ (1.113 g/mL; Nycomed, Oslo, Norway) and sedimented at 500×g for 30 minutes at 20° C. Mononuclear cells were harvested from the interface. Cells were washed with PBS, with serum-free RPMI media (Moore et al., N.Y. J. Med., 1968, 68, 2054) and then with RPMI containing 5% fetal bovine serum (FBS). Monocytes were selected by adherence to plastic cell culture cell culture dishes for 1 h at 37° C. After adherence, cells were treated with oligonucleotides in serum-free RPMI containing Lipofectin™ (8 μg/mL). After 4 hours, the cells were washed. Then RPMI containing 5% FBS and oligonucleotide was added to cells along with interleukin-4 (IL-4; R&D Systems, Minneapolis, Minn.) (66 ng/mL) and granulocyte-macrophage colony-stimulating factor (GM-CSF; R&D Systems, Minneapolis, Minn.) (66 ng/mL) to stimulate differentiation (Romani et al., J. Exp. Med., 1994, 180, 83, 1994). Cells were incubated for 48 hours, after which cell surface expression of various molecules was measured by flow cytometry.
as §2

[7] = system: CD4+ T cells; assay: T cell proliferation assay, [3H]thymidine incorporation, oligonucleotide-treated APCs plus CD4+ T cells; type: cell-based, human; details: APCs treated before cytokine induction; FIG. 7
Description: The ability of ISIS 2302 and ISIS 10373 to inhibit T cell proliferation was evaluated as follows. Monocytes treated with oligonucleotide and cytokines (as in Example 6) were used as antigen presenting cells in a T cell proliferation assay. The differentiated monocytes were combined with CD4+ T cells from a separate donor. After 48 hours, proliferation was measured by [^3H]thymidine incorporation.
For T cell proliferation assays, cells were isolated from EDTA-treated whole blood as described above, except that a faster migrating band containing the lymphocytes was harvested from just below the interface. Cells were washed as described in Example 6 after which erythrocytes were removed by NH4Cl lysis. T cells were purified using a T cell enrichment column (R&D Systems, Minneapolis, Minn.) essentially according to the manufacturer's directions. CD4+ T cells were further enriched from the entire T cell population by depletion of CD8+ cells with anti-CD8-conjugated magnetic beads (AMAC, Inc., Westbrook, Me.) according to the manufacturer's directions. T cells were determined to be >80% CD4+ by flow cytometry using Cy-chrome-conjugated anti-CD4 mAb (PharMingen, San Diego, Calif.).
Antigen presenting cells (APCs) were isolated as described in Example 6 and treated with mitomycin C (25 μg/mL) for 1 hour then washed 3 times with PBS. APCs (10^5 cells) were then combined with 4×10^4 CD4+ T cells in 350 μL of culture media. Where indicated, purified CD3 mAb was also added at a concentration of 1 μg/mL. During the last 6 hours of the 48 hour incubation period, proliferation was measured by determining uptake of 1.5 μCi of [^3H]-thymidine per well. The cells were harvested onto filters and the radioactivity measured by scintillation counting.

[8] = system: human B7-1; assay: Cell surface expression of B7-1 in pcB7-1-transfected COS-7 cells by flow cytometry; type: cell-based; details: FIG. 5
Description: The ability of oligonucleotides to inhibit B7-1 expression was evaluated by measuring the cell surface expression of B7-1 in transfected COS-7 cells by flow cytometry.
A T-175 flask was seeded at 75% confluency with COS-7 cells (ATCC accession No. CRL 1651). The plasmid pcB7-1 was introduced into cells by standard calcium phosphate transfection. Following a 4 hour transfection, the cells were trypsinized and seeded in 12-well dishes at 80% confluency. The cells were allowed to adhere to the plastic for 1 hour and were then washed with phosphate-buffered saline (PBS). OptiMEM™ (GIBCO-BRL, Gaithersburg, Md.) medium was added along with 15 μg/mL of Lipofectin™ (GIBCO-BRL, Gaithersburg, Md.) and oligonucleotide at the indicated concentrations. After four additional hours, the cells were washed with phosphate buffered saline (PBS) and incubated with fresh oligonucleotide at the same concentration in DMEM (Dulbecco et al., Virol., 1959, 8, 396; Smith et al., Virol., 1960, 12, 185) with 10% fetal calf sera (FCS).
In order to monitor the effects of oligonucleotides on cell surface expression of B7-1, treated COS-7 cells were harvested by brief trypsinization 24-48 hours after oligonucleotide treatment. The cells were washed with PBS, then resuspended in 100 μL of staining buffer (PBS, 0.2% BSA, 0.1% azide) with 5 μL conjugated anti-B7-1-antibody (i.e., anti-hCD80-FITC, Ancell, Bayport, Minn.; FITC: fluorescein isothiocyanate). The cells were stained for 30 minutes at 4° C., washed with PBS, resuspended in 300 μL containing 0.5% paraformaldehyde. Cells were harvested and the fluorescence profiles were determined using a flow cytometer.
as §1
The oligonucleotides were screened as described in Example 2 except that the concentration of oligonucleotide was varied as shown in Table 18.

[9] = system: human B7-2; assay: Cell surface expression of B7-2 in transfected COS-7 cells by flow cytometry; type: cell-based
Procedure, shortened: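 COS-7 cells transfected with B7-2 plasmid (calcium phosphate), then treated with antisense oligonucleotides with 15 μg/mL Lipofectin for 4 h, followed by oligonucleotide in DMEM/10% FCS. After 24-48 h, cells stained with FITC- or PE-conjugated anti-CD86 for 30 min at 4 °C and analysed by flow cytometry.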

[10] = system: B7-1; assay: B7-1 cell surface expression in antigen presenting cells, flow cytometry; type: cell-based, human
Description: as §3, §2

[11] = system: HLA-DR; assay: HLA-DR cell surface expression in antigen presenting cells, flow cytometry; type: cell-based, human
Description: as §3, §2

[12] = system: CD3; assay: CD3 cell surface expression in antigen presenting cells, flow cytometry; type: cell-based, human
Description: as §3, §2

Substance: 5′-TCCGTCATCGCTCCTCAGGG-3′ [ISIS 13920]
- deposition pattern in the lung [1]: taken up throughout the lung, most strongly by antigen presenting cells (APCs) and alveolar epithelium

Substance: CTA-AGT-AGT-GCT-AGC-CGG-GA (antisense CTAAGTAGTGCTAGCCGGGA; listed as DNA, chemistry not given here) [ISIS 11866, scrambled # 11696, reference compound]
- inhibition of murine B7-2 cell surface expression ([2]; highest concentration tested (1000 nM)): less than 20%
- levels of induced mB7-2 expression [3]: little effect
- reduction in the level of induced mB7-2 expression [3]: 40%

Substance: GGA-TTG-CCA-AGC-CCA-TGG-TG (GGATTGCCAAGCCCATGGTG; chemistry not given here) [ISIS 11696]
- IC50 ([2]; COS-7 cells, FIG. 8): 200 to 300 nM
- levels of induced mB7-2 expression [3]: greatly reduced
- reduction in the level of induced mB7-2 expression [3]: inhibited mB7-2 expression completely
- mean survival time ([4]; 2 mg/kg/day for 7 days): 9.3 ± 0.6 days
- mean survival time ([4]; 10 mg/kg/day for 7 days): 9.3 ± 1.3 days

Substance: ISIS 2302: antisense oligonucleotide targeted to ICAM-1, an inhibitor of ICAM-1 expression; SEQ ID NO: 17 (antisense GCCCAAGCTGGCATCCGTCA; listed as DNA, chemistry not given here) [reference compound]
- effect on B7-2 expression [5]: no effect
- IC50 ([6]; antigen presenting cells, FIG. 6, read-out: IC50, ICAM-1 levels): ~250 nM
- T cell proliferative response [7]: blocked

Substance: ISIS 10373: phosphorothioate 20-mer to human B7-2 mRNA 0011-0030; 5′-UTR; SEQ ID NO: 16 (antisense dT*dG*dC*dG*dA*dG*dC*dT*dC*dC*dC*dC*dG*dT*dA*dC*dC*dT*dC*dC)
- effect on B7-1 expression (specificity) [8]: little or no effect
- effect on B7-2 expression (specificity) ([9]; FIG. 5): inhibits B7-2 expression
- IC50 [5]: ~250 nM
- effect on ICAM-1 expression ([6]; dose of 1 μM): only a slight effect
- cell surface expression of B7-1 [10]: did not affect
- cell surface expression of HLA-DR [11]: did not affect
- cell surface expression of CD3 [12]: did not affect
- T cell proliferative response [7]: blocked

Substance: ISIS 10721: scrambled # 10373; SEQ ID NO: 82 (antisense dC*dG*dA*dC*dA*dG*dC*dT*dC*dC*dT*dG*dC*dG*dC*dT*dC*dC*dT*dC) [reference compound]
- inhibitory activity on B7-2 cell surface expression ([9]; 200 nM, FIG. 3): no inhibitory activity
- T cell proliferative response [7]: insignificant effect
